Tests used:
PDE6 = biological target: T1, PDE6 (Gallus gallus, UniProt P52731); test: PDE6 inhibition, two-step radioactive [3H]cGMP assay; assay type: biochemical, chicken
T1 sequence (P52731 1-859 limits assumed): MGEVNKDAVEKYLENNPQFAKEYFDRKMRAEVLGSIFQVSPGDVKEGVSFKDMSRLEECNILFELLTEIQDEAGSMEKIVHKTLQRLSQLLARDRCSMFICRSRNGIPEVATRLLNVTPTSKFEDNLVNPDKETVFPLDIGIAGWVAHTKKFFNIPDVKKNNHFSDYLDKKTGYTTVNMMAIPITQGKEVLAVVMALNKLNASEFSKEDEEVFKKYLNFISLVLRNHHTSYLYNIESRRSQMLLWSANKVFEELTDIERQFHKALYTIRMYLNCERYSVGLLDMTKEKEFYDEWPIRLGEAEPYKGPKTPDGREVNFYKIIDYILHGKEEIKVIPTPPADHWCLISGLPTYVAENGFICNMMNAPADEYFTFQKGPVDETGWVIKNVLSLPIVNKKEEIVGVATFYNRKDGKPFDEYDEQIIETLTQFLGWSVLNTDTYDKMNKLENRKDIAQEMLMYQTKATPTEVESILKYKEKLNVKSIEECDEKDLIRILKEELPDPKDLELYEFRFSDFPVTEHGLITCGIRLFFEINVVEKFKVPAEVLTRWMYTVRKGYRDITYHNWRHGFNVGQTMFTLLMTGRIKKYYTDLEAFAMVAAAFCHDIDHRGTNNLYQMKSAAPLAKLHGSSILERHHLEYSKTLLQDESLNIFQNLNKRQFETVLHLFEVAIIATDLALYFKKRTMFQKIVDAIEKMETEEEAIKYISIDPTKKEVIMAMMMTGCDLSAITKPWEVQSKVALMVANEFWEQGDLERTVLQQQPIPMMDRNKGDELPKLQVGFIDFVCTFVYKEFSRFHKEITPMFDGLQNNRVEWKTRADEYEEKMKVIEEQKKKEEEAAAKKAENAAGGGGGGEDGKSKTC

PDE5 = PDE5 (Mus musculus, UniProt Q8CG03); test: PDE5 inhibition, two-step radioactive [3H]cGMP assay; assay type: biochemical; details: for IC50 ratio PDE6/PDE5: pure compounds, selectivity on PDE5 over PDE6

Structure (SMILES)	IC50 (PDE6) [nM]	IC50 (PDE5) [nM]	IC50 ratio PDE6/PDE5 (PDE5)	inhibition at 10 µM (PDE6; read-out: % Inhibitory activity at 10 μM PDE6, final concentration 10 μM, n = 3) [%]	inhibition at 10 µM (PDE5; read-out: % Inhibitory activity at 10 μM PDE5, final concentration 10 μM, n = 3) [%]
CCCc1nn(C)c2c(=O)[nH]c(-c3cc(S(=O)(=O)N4CCN(C)CC4)ccc3OCC)nc12 [Sildenafil, sildenafil]	33 ± 10	6.8	4.85		
COc1cc(OC)c2c(=O)cc(-c3ccccc3)oc2c1 [Compound 2, 5,7-dimethoxyflavone]	39500 ± 1000	10600 ± 2090	3.71	> 35	> 35
OCCN(CCO)c1nc(N2CCCCC2)c2nc(N(CCO)CCO)nc(N3CCCCC3)c2n1 [Dipyridamole, dipyridamole]	231 ± 30	1460 ± 810			
